Measurements as given in paper PMC12119275 (Frontiers in Molecular Biosciences, 2025).

How the values were obtained:
SARS-CoV-1pp = test: microbe, parasite or virus in culture; assay type: cell-based; settings: Severe acute respiratory syndrome coronavirus, HEK293, 48 h, read-out: EC50 SARS-CoV-1pp
SARS-CoV-2pp = test: microbe, parasite or virus in culture; assay type: cell-based; settings: for EC50: Severe acute respiratory syndrome coronavirus 2, HEK293, 48 h, read-out: EC50 SARS-CoV-2pp; for IC50: Severe acute respiratory syndrome coronavirus 2, HEK293, read-out: IC50, inhibition of SARS-CoV-2pp infection of HEK-293-hACE2 cells
[1] = tested on: B.1.1.7 (alpha) SARS-CoV-2pp; test: microbe, parasite or virus in culture; assay type: cell-based; settings: Severe acute respiratory syndrome coronavirus 2, HEK293, 48 h, read-out: EC50 B.1.1.7 (alpha) SARS-CoV-2pp
[2] = tested on: B.1.351 (beta) SARS-CoV-2pp; test: microbe, parasite or virus in culture; assay type: cell-based; settings: Severe acute respiratory syndrome coronavirus 2, HEK293, 48 h, read-out: EC50 B.1.351 (beta) SARS-CoV-2pp
[3] = tested on: B.1.617.2 (delta) SARS-CoV-2pp; test: microbe, parasite or virus in culture; assay type: cell-based; settings: Severe acute respiratory syndrome coronavirus 2, HEK293, 48 h, read-out: EC50 B.1.617.2 (delta) SARS-CoV-2pp
[4] = tested on: B.1.1.28 (gamma) SARS-CoV-2pp; test: microbe, parasite or virus in culture; assay type: cell-based; settings: Severe acute respiratory syndrome coronavirus 2, HEK293, 48 h, read-out: EC50 B.1.1.28 (gamma) SARS-CoV-2pp
[5] = tested on: B.1.1.529 (omicron) SARS-CoV-2pp; test: microbe, parasite or virus in culture; assay type: cell-based; settings: Severe acute respiratory syndrome coronavirus 2, HEK293, 48 h, read-out: EC50 B.1.1.529 (omicron) SARS-CoV-2pp
BA.2 SARS-CoV-2pp = test: microbe, parasite or virus in culture; assay type: cell-based; settings: Severe acute respiratory syndrome coronavirus 2, HEK293, 48 h, read-out: EC50 BA.2 SARS-CoV-2pp
[6] = tested on: SARS CoV-2 2019-nCoV/USA-WA1/2020; test: Efficacy in SARS-CoV2 infected K18-hACE2 mice (lung viral load by plaque assay); assay type: in vivo; settings: 2 h before and 24 h after infection, 3 days post-infection; for effect on SARS-CoV2 viral load in lung homogenates: 100 mg/kg p.o. at 24 h before
[7] = Pharmacokinetics analysis in mice; settings: C57 Bl/6, mouse, plasma, po
SARS-CoV-2 [8] = test: microbe, parasite or virus in culture; assay type: cell-based; settings: Severe acute respiratory syndrome coronavirus 2, A549, read-out: IC50, inhibition of SARS-CoV-2 infection of A549-hACE2 cells
MERSpp = test: microbe, parasite or virus in culture; assay type: cell-based, MERS; settings: Middle East respiratory syndrome-related coronavirus, HeLa, 48 h, read-out: EC50 MERSpp
SARS-CoV-2 [9] = settings: ref Dittmar et al., 2021; cited from earlier work
COVID-19 = settings: Phase 2 clinical trial; ref BerGenBio, 2022; cited from earlier work
A549 cells [10] = test: A549 cell vacuolization analysis (phase contrast); settings: 5 µM, 24 h
A549 cells [11] = test: A549 cell phospholipidosis (NBD-PE staining assay); settings: 24 h, dose-range; amiodarone positive control
AXL kinase = molecular target: T1, AXL kinase (Homo sapiens, UniProt P30530); test: AXL kinase assay (Reaction Biology Hot Spot, 33P-ATP); assay type: biochemical
T1 construct: purchased Reaction Biology
T1 sequence (P30530 26-894): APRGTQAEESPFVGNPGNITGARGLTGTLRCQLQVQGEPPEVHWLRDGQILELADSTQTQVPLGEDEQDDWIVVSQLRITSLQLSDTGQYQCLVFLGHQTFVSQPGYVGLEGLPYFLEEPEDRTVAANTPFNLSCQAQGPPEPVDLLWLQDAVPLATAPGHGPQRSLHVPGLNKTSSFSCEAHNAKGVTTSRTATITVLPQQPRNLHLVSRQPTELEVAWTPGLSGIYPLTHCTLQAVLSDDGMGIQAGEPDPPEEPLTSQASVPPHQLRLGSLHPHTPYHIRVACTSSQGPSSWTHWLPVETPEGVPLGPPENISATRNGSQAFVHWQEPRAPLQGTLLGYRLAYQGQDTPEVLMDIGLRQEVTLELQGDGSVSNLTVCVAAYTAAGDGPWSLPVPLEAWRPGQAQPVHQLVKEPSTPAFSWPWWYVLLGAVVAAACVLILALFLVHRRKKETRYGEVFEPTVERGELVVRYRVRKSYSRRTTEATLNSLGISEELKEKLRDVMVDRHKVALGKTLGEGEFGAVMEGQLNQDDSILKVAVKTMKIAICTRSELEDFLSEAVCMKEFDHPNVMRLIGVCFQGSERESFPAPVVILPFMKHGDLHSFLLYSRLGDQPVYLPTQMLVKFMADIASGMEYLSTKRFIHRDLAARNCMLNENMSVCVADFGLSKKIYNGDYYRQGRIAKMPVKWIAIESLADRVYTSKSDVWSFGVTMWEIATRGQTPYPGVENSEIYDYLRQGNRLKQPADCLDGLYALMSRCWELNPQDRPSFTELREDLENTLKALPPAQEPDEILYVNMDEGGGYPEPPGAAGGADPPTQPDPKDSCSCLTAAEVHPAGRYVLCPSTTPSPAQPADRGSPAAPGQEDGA

Row | SMILES | EC50 (SARS-CoV-1pp) [nM] | EC50 (SARS-CoV-2pp) [nM] | EC50 [1] [nM] | EC50 [2] [nM] | EC50 [3] [nM] | EC50 [4] [nM] | EC50 [5] [nM] | EC50 (BA.2 SARS-CoV-2pp) [nM] | IC50 (SARS-CoV-2 [8]) [nM] | IC50 (SARS-CoV-2pp) [nM] | EC50 (MERSpp) [nM] | effect on SARS-CoV2 viral load in lung homogenates [6] | AUC ([7]; 100 mg/kg) [ng·h/mL] | Cmax ([7]; 100 mg/kg) [ng/mL] | Tmax ([7]; 100 mg/kg) [h] | vacuolization in human lung A549 cells (A549 cells [10]) | phospholipidosis in A549 cells (NBD-PE staining) (A549 cells [11]) | also measured
1 | FC(F)(F)c1nc(Nc2ccc3c(c2)CCC(N2CCCC2)CC3)n(-c2cc3c(nn2)-c2ccccc2CCC3)n1 (centres unmarked) [WYS-694] | 820 ± 1020 | 80 ± 30 | 120 ± 70 | 180 ± 110 | 130 ± 90 | 160 ± 150 | 130 ± 120 | 450 ± 440 | – | – | – | – | – | – | – | – | – | fold more potent than WYS-633 in inhibiting viral entry (SARS-CoV-2pp): 12.5 fold; reduction of SARS-CoV-2 viral load in lung homogenates ([6]; 30 mg/kg p.o. at 24 h before): more than 4 fold; AUC ([7]; 30 mg/kg): 10700 ng·h/mL; Cmax ([7]; 30 mg/kg): 556 ng/mL; Tmax ([7]; 30 mg/kg): 24 h
2 | Nc1nc(Nc2ccc3c(c2)CC[C@@H](N2CCCC2)CC3)nn1-c1cc2c(nn1)-c1ccccc1CCC2 [Bemcentinib, bemcentinib, reference compound] | 910 ± 10 | 5680 ± 3760 | 430 ± 180 | 390 ± 140 | 380 ± 140 | 420 ± 120 | 210 ± 10 | 160 ± 30 | 70 | 5700 | 90 ± 10 | failed to reduce SARS-CoV2 viral load | 33300 | 1760 | 13 | induced significant vacuolization | neither compound demonstrated phospholipidosis | inhibition of SARS-CoV-2 infection of human lung Calu-3 cells (SARS-CoV-2 [9]): inhibits SARS-CoV-2 infection of human lung Calu-3 cells; clinical response in patients hospitalized with COVID-19 (COVID-19): improved clinical response and key secondary endpoints
3 | c1ccc2c(c1)CCCc1cc(-c3nnc(Nc4ccc5c(c4)CCC(N4CCCC4)CC5)o3)nnc1-2 (centres unmarked) [WYS-633] | 750 ± 70 | 2520 ± 2260 | 1230 ± 580 | 1250 ± 50 | 1050 ± 370 | 1660 ± 710 | 1030 ± 650 | 680 ± 290 | 610 | 2520 | 310 ± 120 | failed to reduce SARS-CoV2 viral load | 7920 | 950 | 2 | did not | neither compound demonstrated phospholipidosis | activity against AXL kinase (in words) (AXL kinase): inactive
